# From patent US20190359609A1, “BICYCLIC OGA INHIBITOR COMPOUNDS” (Janssen Pharmaceutica NV, priority 2016, published 2019)
# Molecular target: T1, recombinant human Meningioma Expressed Antigen 5 (MGEA5), also referred to as O-GlcNAcase (OGA) (Homo sapiens, UniProt O60502)
# T1 construct: Full length OGA enzyme was purchased at OriGene (cat # TP322411); purchased OriGene TP322411
# T1 sequence (O60502 1-916): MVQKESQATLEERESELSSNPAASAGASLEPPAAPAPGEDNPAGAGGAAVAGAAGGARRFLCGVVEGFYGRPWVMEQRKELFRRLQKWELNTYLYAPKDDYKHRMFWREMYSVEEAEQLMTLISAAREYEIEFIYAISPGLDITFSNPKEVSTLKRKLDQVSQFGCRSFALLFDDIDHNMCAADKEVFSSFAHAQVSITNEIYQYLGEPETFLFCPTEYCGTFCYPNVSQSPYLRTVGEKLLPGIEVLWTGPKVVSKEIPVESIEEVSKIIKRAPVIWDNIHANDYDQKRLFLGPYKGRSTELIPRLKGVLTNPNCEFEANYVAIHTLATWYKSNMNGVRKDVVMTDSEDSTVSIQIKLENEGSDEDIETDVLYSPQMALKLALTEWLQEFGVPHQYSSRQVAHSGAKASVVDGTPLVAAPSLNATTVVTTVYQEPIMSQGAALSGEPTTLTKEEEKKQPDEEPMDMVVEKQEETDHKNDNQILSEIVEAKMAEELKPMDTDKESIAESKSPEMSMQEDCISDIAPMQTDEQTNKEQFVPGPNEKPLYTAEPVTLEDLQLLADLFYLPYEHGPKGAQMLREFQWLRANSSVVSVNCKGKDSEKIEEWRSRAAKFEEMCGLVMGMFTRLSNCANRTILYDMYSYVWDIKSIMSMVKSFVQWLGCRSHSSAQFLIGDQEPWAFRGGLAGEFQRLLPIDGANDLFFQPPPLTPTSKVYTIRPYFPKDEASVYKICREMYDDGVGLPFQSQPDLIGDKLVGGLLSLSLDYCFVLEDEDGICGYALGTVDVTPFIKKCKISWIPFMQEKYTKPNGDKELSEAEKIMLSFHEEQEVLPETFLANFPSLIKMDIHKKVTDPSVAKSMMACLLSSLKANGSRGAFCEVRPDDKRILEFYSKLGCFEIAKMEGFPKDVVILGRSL
# Experiment: OGA biochemical assay: inhibition of FM-GlcNAc hydrolysis, fluorescence (protocol A 10 nM OGA, 1 h; protocol B 2 nM OGA, 6 h)
# Conditions: Enzymatic protocol B (2 nM OGA, 6 h); read-out: Enzymatic Emax (%)
# From the text: The assay is based on the inhibition of the hydrolysis of fluorescein mono-B-D-N-Acetyl-Glucosamine (FM-GlcNAc) (Mariappa et al. 2015, Biochem J 470:255) by the recombinant human Meningioma Expressed Antigen 5 (MGEA5), also referred to as 0-GlcNAcase (OGA). The hydrolysis FM-GlcNAc (Marker Gene technologies, cat # M1485) results in the formation of β-D-N-glucosamineacetate and fluorescein. The fluorescence of the latter can be measured at excitation wavelength 485 nm and emission wavelength 538 nm. An increase in enzyme activity results in an increase in fluorescence signal. Full length OGA enzyme was purchased at OriGene (cat # TP322411). The enzyme was stored in 25 mM Tris.HCl, pH 7.3, 100 mM glycine, 10% glycerol at −20° C. Thiamet G and GlcNAcStatin were tested as reference compounds (Yuzwa et al. 2008 Nature Chemical Biology 4:483; Yuzwa et al. 2012 Nature Chemical Biology 8:393). The assay was performed in 200 mM Citrate/phosphate buffer supplemented with 0.005% Tween-20. 35.6 g Na2HPO4 2 H2O (Sigma, # C0759) were dissolved in 1 L water to obtain a 200 mM solution. 19.2 g citric acid (Merck, #1.06580) was dissolved in 1 L water to obtain a 100 mM solution. pH of the sodiumphosphate solution was adjusted with the citric acid solution to 7.2. The buffer to stop the reaction consists of a 500 mM Carbonate buffer, pH 11.0. 734 mg FM-GlcNAc were dissolved in 5.48 mL DMSO to obtain a 250 mM solution and was stored at −20° C. OGA was used at a 10 nM (protocol A) or 2 nM (protocol B) concentration and FM-GlcNAc at a 100 uM final concentration. Dilutions were prepared in assay buffer.
# 50 nl of a compound dissolved in DMSO was dispensed on Black Proxiplate™ 384 Plus Assay plates (Perkin Elmer, #6008269) and 3 μl fl-OGA enzyme mix added subsequently. Plates were pre-incubated for 60 min at room temperature and then 2 μl FM-GlcNAc substrate mix added. […] Plates were briefly centrifuged for 1 min at 1000 rpm and incubate at room temperature for 1 h (10 nM OGA, protocol A) or 6 h (2 nM OGA, protocol B). To stop the reaction 5 μl STOP buffer were added and plates centrifuge again 1 min at 1000 rpm. Fluorescence was quantified in the Thermo Scientific Fluoroskan Ascent or the PerkinElmer EnVision with excitation wavelength 485 nm and emission wavelength 538 nm.
# For analysis a best-fit curve is fitted by a minimum sum of squares method. From this an IC50 value and Hill coefficient was obtained. High control (no inhibitor) and low control (saturating concentrations of standard inhibitor) were used to define the minimum and maximum values.
row,Emax,Structure (SMILES)
1,99.8%,CC(=O)Nc1ncc(CN2CCC(Cc3cc4ncccc4[nH]3)C2)s1 (centres unmarked) [Compound 24]
2,52.3%,Cn1c(C2CCCN(Cc3cc4c(cn3)OCCO4)C2)cc2ncccc21 (centres unmarked) [Compound 50]
3,56.7%,Cn1c(C2CCCN(Cc3ccc4ccccc4n3)C2)cc2ncccc21 (centres unmarked) [Compound 51]
4,72.2%,Cn1c(C2CCCN(Cc3ccc4nsnc4c3)C2)cc2ncccc21 (centres unmarked) [Compound 52]
5,97.2%,Cn1c(C2CCCN(Cc3ccc4scnc4c3)C2)cc2ncccc21 (centres unmarked) [Compound 53]
6,69.1%,Cn1c(CN2CCCC(c3cc4ncccc4n3C)C2)cc2ccccc21 (centres unmarked) [Compound 54]
7,81.5%,Cn1c(C2CCCN(Cc3cnc4c(c3)OCCO4)C2)cc2ncccc21 (centres unmarked) [Compound 55]
8,98%,Cn1c(C2CCCN(Cc3nc4ccccc4n3C)C2)cc2ncccc21 (centres unmarked) [Compound 56]
9,60.8%,CC(=O)Nc1ncc(CN2CCNC(c3cc4ncccc4[nH]3)C2)s1 (centres unmarked) [Compound 57]
10,23.9%,Cn1c(C2CCCN(Cc3ccc4cccnc4c3)C2)cc2ncccc21 (centres unmarked) [Compound 63]
11,100%,CC(=O)Nc1ncc(CN2CCCC(Cn3ccc4ncccc43)C2)s1 (centres unmarked) [Compound 64]

# Same assay, conditions: Enzymatic protocol B (2 nM OGA, 6 h); read-out: Enzymatic hOGA; pIC50 (converted)
row,IC50,Structure (SMILES)
1,0.00214 µM,CC(=O)Nc1ncc(CN2CCC(Cc3cc4ncccc4[nH]3)C2)s1 (centres unmarked) [Compound 24]
2,8.71 µM,Cn1c(C2CCCN(Cc3cc4c(cn3)OCCO4)C2)cc2ncccc21 (centres unmarked) [Compound 50]
3,7.76 µM,Cn1c(C2CCCN(Cc3ccc4ccccc4n3)C2)cc2ncccc21 (centres unmarked) [Compound 51]
4,3.98 µM,Cn1c(C2CCCN(Cc3ccc4nsnc4c3)C2)cc2ncccc21 (centres unmarked) [Compound 52]
5,0.832 µM,Cn1c(C2CCCN(Cc3ccc4scnc4c3)C2)cc2ncccc21 (centres unmarked) [Compound 53]
6,4.07 µM,Cn1c(CN2CCCC(c3cc4ncccc4n3C)C2)cc2ccccc21 (centres unmarked) [Compound 54]
7,2.19 µM,Cn1c(C2CCCN(Cc3cnc4c(c3)OCCO4)C2)cc2ncccc21 (centres unmarked) [Compound 55]
8,0.832 µM,Cn1c(C2CCCN(Cc3nc4ccccc4n3C)C2)cc2ncccc21 (centres unmarked) [Compound 56]
9,6.61 µM,CC(=O)Nc1ncc(CN2CCNC(c3cc4ncccc4[nH]3)C2)s1 (centres unmarked) [Compound 57]
10,> 10 µM,Cn1c(C2CCCN(Cc3ccc4cccnc4c3)C2)cc2ncccc21 (centres unmarked) [Compound 63]
11,0.00776 µM,CC(=O)Nc1ncc(CN2CCCC(Cn3ccc4ncccc43)C2)s1 (centres unmarked) [Compound 64]

# Same assay, conditions: comparative table; protocol not given; read-out: Emax (OGA inhibitory activity, comparison with 1,4-disubstituted piperidine comparator)
row,Emax,Structure (SMILES)
1,103%,"CC(=O)Nc1ncc(CN2CCC(c3cc4ncccc4[nH]3)CC2)s1 [comparator, reference compound]"

# Same assay, conditions: comparative table; protocol not given; read-out: pIC50 (OGA inhibitory activity, comparison with 1,4-disubstituted piperidine comparator) (converted)
row,IC50,Structure (SMILES)
1,0.224 µM,"CC(=O)Nc1ncc(CN2CCC(c3cc4ncccc4[nH]3)CC2)s1 [comparator, reference compound]"

# Molecular target: T2, OGA (Homo sapiens, UniProt O60502)
# T2 construct: endogenous in cells; host or cells: HEK293 cells inducible for P301L mutant human Tau (2N4R)
# T2 sequence (O60502 1-916): T1 sequence (O60502 1-916)
# Experiment: OGA cellular assay: ICC detection of O-GlcNAcylated proteins in HEK293 cells inducible for P301L mutant human Tau
# Type: cell-based
# Conditions: 6 hours incubation
# Procedure: HEK293 cells inducible for P301L mutant human Tau (isoform 2N4R) were established at Janssen. Thiamet-G was used for both plate validation (high control) and as reference compound (reference EC50 assay validation). OGA inhibition is evaluated through the immunocytochemical (ICC) detection of O-GlcNAcylated proteins by the use of a monoclonal antibody (CTD110.6; Cell Signaling, #9875) detecting O-GlcNAcylated residues as previously described (Dorfmueller et al. 2010 Chemistry & biology, 17:1250).
# Inhibition of OGA will result in an increase of 0-GlcNAcylated protein levels resulting in an increased signal in the experiment. Cell nuclei are stained with Hoechst to give a cell culture quality control and a rough estimate of immediate compounds toxicity, if any. ICC pictures are imaged with a Perkin Elmer Opera Phenix plate microscope and quantified with the provided software Perkin Elmer Harmony 4.1.
# Cells were propagated in DMEM high Glucose (Sigma, #D5796) following standard procedures. 2 days before the cell assay cells are split, counted and seeded in Poly-D-Lysine (PDL) coated 96-wells (Greiner, #655946) plate at a cell density of 12,000 cells per cm^2 (4,000 cells per well) in 100 μl of Assay Medium (Low Glucose medium is used to reduce basal levels of GlcNAcylation) (Park et al. 2014 The Journal of biological chemistry 289:13519). At the day of compound test medium from assay plates was removed and replenished with 90 μl of fresh Assay Medium. 10 μl of compounds at a 10fold final concentration were added to the wells. Plates were centrifuged shortly before incubation in the cell incubator for 6 hours. DMSO concentration was set to 0.2%. Medium is discarded by applying vacuum. For staining of cells medium was removed and cells washed once with 100 μl D-PBS (Sigma, #D8537). From next step onwards unless other stated assay volume was always 50 μl and incubation was performed without agitation and at room temperature. Cells were fixed in 50 μl of a 4% paraformaldehyde (PFA, Alpha aesar, #043368) PBS solution for 15 minutes at room temperature. […] Before analysis samples were washed 2 times manually for 5 minutes in ICC base buffer.
# Imaging is performed using Perkin Elmer Phenix Opera using a water 20× objective and recording 9 fields per well. Intensity readout at 488 nm is used as a measure of O-GlcNAcylation level of total proteins in wells. To assess potential toxicity of compounds nuclei were counted using the Hoechst staining. IC50-values are calculated using parametric non-linear regression model fitting. As a maximum inhibition Thiamet G at a 200 uM concentration is present on each plate. In addition, a concentration response of Thiamet G is calculated on each plate.
row,Emax,Structure (SMILES)
1,98%,CC(=O)Nc1ncc(CN2CCC(Cc3cc4ncccc4[nH]3)C2)s1 (centres unmarked) [Compound 24]

# Same assay, conditions: 6 hours incubation, read-out: Cellular hOGA, pEC50 (converted)
row,EC50,Structure (SMILES)
1,0.00794 µM,CC(=O)Nc1ncc(CN2CCC(Cc3cc4ncccc4[nH]3)C2)s1 (centres unmarked) [Compound 24]
